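Where inhibition never reached the appropriate level, the endpoint shown equals the highest concentration tested. Otherwise, values were interpolated linearly from a five-concentration, 48-hour dose response in 96-well plates. Here, GI50 denotes the concentration required for 50% inhibition of growth. Definition used: TGI = concentration required for complete inhibition of growth.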
How the values were obtained:
Assay in all cases: inhibition of tumour cell growth, NCI panel, 48 h; in the data active = GI50 below about 0.43 µM; inactive = the rest
[1] = test system: SK-MEL-28 melanoma
[2] = test system: RPMI-8226 leukemia
[3] = test system: HOP-62 NSCLC
[4] = test system: SNB-19 CNS
[5] = test system: 786-0 renal
[6] = test system: KM12 colon
[7] = test system: CAKI-1 renal
[8] = test system: SK-OV-3 ovarian
[9] = test system: OVCAR-5 ovarian
[10] = test system: DU-145 prostate
[11] = test system: A498 renal
[12] = test system: MDA-MB-231 breast
[13] = test system: HL-60(TB) leukemia
[14] = test system: HCT-116 colon
[15] = test system: NCI/ADR-RES ovarian
[16] = test system: RXF 393 renal
[17] = test system: HS 578T breast
[18] = test system: COLO 205 colon
[19] = test system: IGROV1 ovarian
[20] = test system: BT-549 breast
[21] = test system: T-47D breast
[22] = test system: HCC-2998 colon
[23] = test system: U251 CNS
[24] = test system: NCI-H522 lung
[25] = test system: PC-3 prostate
[26] = test system: UACC-257 melanoma
[27] = test system: UO-31 renal
[28] = test system: SNB-75 CNS
[29] = test system: NCI-H226 lung
[30] = test system: OVCAR-8 ovarian
[31] = test system: CCRF-CEM leukemia
[32] = test system: SK-MEL-5 melanoma
[33] = test system: NCI-H460 lung
[34] = test system: SK-MEL-2 melanoma
[35] = test system: ACHN renal
[36] = test system: K-562 leukemia
[37] = test system: SF-295 CNS
[38] = test system: MALME-3M melanoma
[39] = test system: SF-268 CNS
[40] = test system: SF-539 CNS
[41] = test system: M14 melanoma
[42] = test system: HT29 colon
[43] = test system: UACC-62 melanoma
[44] = test system: LOX IMVI melanoma
[45] = test system: OVCAR-3 ovarian
[46] = test system: NCI-H23 lung
[47] = test system: A549 NSCLC
[48] = test system: TK-10 renal
[49] = test system: OVCAR-4 ovarian
[50] = test system: HCT-15 colon
[51] = test system: MDA-MB-435
[52] = test system: EKVX NSCLC
[53] = test system: SN12C renal
[54] = test system: HOP-92 NSCLC
[55] = test system: SR leukemia
[56] = test system: SW-620 colon
[57] = test system: MOLT-4 leukemia
[58] = test system: MCF7 breast

O=C(N/N=C/c1ccccc1O)C(O)(c1ccccc1)c1ccccc1
> 100 µM: TGI [1] | TGI [2] | TGI [3] | TGI [4] | TGI [5] | TGI [6] | TGI [7] | TGI [8] | TGI [9] | TGI [10] | TGI [11] | TGI [12] | TGI [13] | TGI [14] | TGI [15] | TGI [16] | TGI [17] | TGI [18] | TGI [19] | TGI [20] | TGI [21] | TGI [22] | TGI [23] | TGI [24] | TGI [25] | TGI [26] | TGI [27] | TGI [28] | TGI [29] | TGI [30] | TGI [31] | TGI [32] | TGI [33] | TGI [34] | TGI [35] | TGI [36] | TGI [37] | TGI [38] | TGI [39] | TGI [40] | TGI [41] | TGI [42] | TGI [43] | TGI [44] | TGI [45] | TGI [46] | TGI [47] | TGI [48] | TGI [49] | TGI [50] | TGI [51] | TGI [52] | TGI [53] | TGI [54] | TGI [55] | TGI [56] | TGI [57]
inactive: GI50 [1] > 100 µM | GI50 [2] > 100 µM | GI50 [3] 7.37 µM | GI50 [4] > 100 µM | GI50 [5] > 100 µM | GI50 [6] 9.93 µM | GI50 [7] 2.36 µM | GI50 [8] > 100 µM | GI50 [9] > 100 µM | GI50 [10] > 100 µM | GI50 [11] > 100 µM | GI50 [12] 15 µM | GI50 [13] 2.88 µM | GI50 [14] 2.95 µM | GI50 [15] 7.65 µM | GI50 [16] > 100 µM | GI50 [17] > 100 µM | GI50 [18] 3.43 µM | GI50 [19] 3.83 µM | GI50 [20] > 100 µM | GI50 [21] 8.02 µM | GI50 [22] 17.4 µM | GI50 [23] 4.77 µM | GI50 [24] 19.7 µM | GI50 [25] > 100 µM | GI50 [26] 5.99 µM | GI50 [27] 2 µM | GI50 [28] > 100 µM | GI50 [29] > 100 µM | GI50 [30] 13.1 µM | GI50 [31] 2.26 µM | GI50 [32] > 100 µM | GI50 [33] 3.54 µM | GI50 [34] 53.1 µM | GI50 [35] 8.43 µM | GI50 [36] 6.73 µM | GI50 [37] 4.5 µM | GI50 [38] > 100 µM | GI50 [39] 8.69 µM | GI50 [40] > 100 µM | GI50 [41] 50.5 µM | GI50 [42] 4.46 µM | GI50 [43] 15 µM | GI50 [44] 5.09 µM | GI50 [45] 2.66 µM | GI50 [46] > 100 µM | GI50 [47] 9.67 µM | GI50 [48] > 100 µM | GI50 [49] 3.43 µM | GI50 [50] 3.54 µM | GI50 [51] > 100 µM | GI50 [52] 3.6 µM | GI50 [53] > 100 µM | GI50 [54] > 100 µM | GI50 [55] 4.29 µM | GI50 [56] > 100 µM | GI50 [57] 4.46 µM

O=C1/C(=C\c2ccc(F)cc2)CN(C(=O)c2ccc([N+](=O)[O-])cc2)C/C1=C\c1ccc(F)cc1
3.19 µM: TGI [16]
82.7 µM: TGI [48]
5.35 µM: TGI [56]
> 40.4 µM: TGI [33]
7.85 µM: TGI [3]
1.47 µM: TGI [44]
11 µM: TGI [19]
2.19 µM: TGI [6]
8.79 µM: TGI [17]
active: GI50 [58] 0.389 µM | GI50 [2] 0.302 µM | GI50 [14] 0.21 µM | GI50 [44] 0.373 µM
> 93 µM: TGI [28]
6.55 µM: TGI [53]
4.41 µM: TGI [20]
> 27.7 µM: TGI [51]
4.31 µM: TGI [50]
3.52 µM: TGI [42]
15.6 µM: TGI [46]
15.1 µM: TGI [1]
6.99 µM: TGI [27]
> 42.6 µM: TGI [31]
> 51.8 µM: TGI [10]
16.4 µM: TGI [37]
> 21.4 µM: TGI [29]
12.7 µM: TGI [18]
> 85.2 µM: TGI [57]
7.92 µM: TGI [12]
> 50.2 µM: TGI [13]
30.7 µM: TGI [24]
49.5 µM: TGI [9]
1.62 µM: TGI [2]
4.32 µM: TGI [5]
45.9 µM: TGI [38]
47 µM: TGI [11]
> 77.3 µM: TGI [47]
3.97 µM: TGI [23]
6.27 µM: TGI [43]
28.1 µM: TGI [26]
14.5 µM: TGI [25]
7.49 µM: TGI [35]
10.2 µM: TGI [40]
> 100 µM: TGI [7] | TGI [15] | TGI [21] | TGI [30] | TGI [34] | TGI [39] | TGI [49] | TGI [54]
7.53 µM: TGI [45]
> 43.2 µM: TGI [36]
inactive: GI50 [1] 3.72 µM | GI50 [3] 2.56 µM | GI50 [4] 3.58 µM | GI50 [5] 1.89 µM | GI50 [6] 0.568 µM | GI50 [7] 6.64 µM | GI50 [8] 3.7 µM | GI50 [9] 4.6 µM | GI50 [10] 4.31 µM | GI50 [11] 4.4 µM | GI50 [12] 2.38 µM | GI50 [13] 5.07 µM | GI50 [15] 3.65 µM | GI50 [16] 1.53 µM | GI50 [17] 2.29 µM | GI50 [18] 3.17 µM | GI50 [19] 2.67 µM | GI50 [20] 2 µM | GI50 [21] 6.61 µM | GI50 [22] 1.95 µM | GI50 [23] 1.55 µM | GI50 [24] 4.3 µM | GI50 [25] 2.14 µM | GI50 [26] 4.17 µM | GI50 [27] 1.69 µM | GI50 [28] 7.66 µM | GI50 [30] 2.97 µM | GI50 [31] 1.64 µM | GI50 [32] 1.69 µM | GI50 [33] 4.26 µM | GI50 [34] 20.4 µM | GI50 [35] 2.46 µM | GI50 [36] 0.915 µM | GI50 [37] 2.99 µM | GI50 [38] 8.22 µM | GI50 [39] 3.41 µM | GI50 [40] 2.93 µM | GI50 [41] 2.28 µM | GI50 [42] 0.517 µM | GI50 [43] 1.98 µM | GI50 [45] 2.69 µM | GI50 [46] 3.6 µM | GI50 [47] 3.63 µM | GI50 [48] 5.05 µM | GI50 [49] 3.61 µM | GI50 [50] 1.31 µM | GI50 [51] 1.83 µM | GI50 [53] 2.19 µM | GI50 [54] 11.4 µM | GI50 [56] 0.885 µM | GI50 [57] 2.7 µM
26.8 µM: TGI [8]
3.76 µM: TGI [22]
4.19 µM: TGI [58]
0.448 µM: TGI [14]
49.1 µM: TGI [4]
6.81 µM: TGI [41]
3.84 µM: TGI [32]

Source: PubChem BioAssay (NCI)
